Data from patent US11040981B2, “Pyrrolotriazine compounds and methods of inhibiting TAM kinases” (Syros Pharmaceuticals, Inc., priority 2017, dated 2021).

Experiments:
AXL = molecular target: T1, AXL (Homo sapiens, UniProt P30530); test: TR-FRET kinase activity assay, AXL; assay type: biochemical; conditions: ATP at Km, 60 minutes
T1 sequence (P30530 26-894): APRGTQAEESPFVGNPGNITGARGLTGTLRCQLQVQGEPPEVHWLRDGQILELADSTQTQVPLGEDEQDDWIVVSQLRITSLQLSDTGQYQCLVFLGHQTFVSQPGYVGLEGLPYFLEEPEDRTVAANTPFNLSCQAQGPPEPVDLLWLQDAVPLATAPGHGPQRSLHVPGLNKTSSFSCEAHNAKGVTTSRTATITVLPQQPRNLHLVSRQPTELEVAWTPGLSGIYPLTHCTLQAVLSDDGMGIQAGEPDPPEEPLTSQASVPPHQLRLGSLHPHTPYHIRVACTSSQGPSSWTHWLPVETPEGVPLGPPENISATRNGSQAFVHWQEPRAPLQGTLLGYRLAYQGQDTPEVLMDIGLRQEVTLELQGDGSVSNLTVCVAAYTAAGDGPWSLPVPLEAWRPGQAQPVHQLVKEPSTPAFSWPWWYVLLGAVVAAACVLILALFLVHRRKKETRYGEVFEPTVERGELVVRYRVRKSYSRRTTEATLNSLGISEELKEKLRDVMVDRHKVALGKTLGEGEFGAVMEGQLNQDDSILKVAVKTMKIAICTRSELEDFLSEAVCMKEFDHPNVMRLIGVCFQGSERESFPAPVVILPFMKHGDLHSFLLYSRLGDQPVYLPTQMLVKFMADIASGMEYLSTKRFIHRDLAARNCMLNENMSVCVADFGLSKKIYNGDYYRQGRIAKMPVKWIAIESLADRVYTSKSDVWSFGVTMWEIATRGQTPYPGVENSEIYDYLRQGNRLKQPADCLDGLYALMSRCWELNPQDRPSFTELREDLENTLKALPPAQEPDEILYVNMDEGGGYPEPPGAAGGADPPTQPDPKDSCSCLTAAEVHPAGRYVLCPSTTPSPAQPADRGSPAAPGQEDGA
How it was run: (§1)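 Each kinase phosphorylated a fluorescent-labelled tyrosine peptide in 50 mM HEPES pH 7.5, 10 mM MgCl2, 1 mM EGTA, 0.01% Brij 35, 1 mM DTT at RT, with ATP at Km for that enzyme. After 60 min, EDTA quench and Eu-anti-phosphotyrosine antibody (30 min, dark); IC50 from TR-FRET decrease.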

TYRO3 = molecular target: T2, TYRO3 (Homo sapiens, UniProt Q06418); test: TR-FRET kinase activity assay, TYRO3; assay type: biochemical; conditions: ATP at Km, 60 minutes
T2 sequence (Q06418 41-890): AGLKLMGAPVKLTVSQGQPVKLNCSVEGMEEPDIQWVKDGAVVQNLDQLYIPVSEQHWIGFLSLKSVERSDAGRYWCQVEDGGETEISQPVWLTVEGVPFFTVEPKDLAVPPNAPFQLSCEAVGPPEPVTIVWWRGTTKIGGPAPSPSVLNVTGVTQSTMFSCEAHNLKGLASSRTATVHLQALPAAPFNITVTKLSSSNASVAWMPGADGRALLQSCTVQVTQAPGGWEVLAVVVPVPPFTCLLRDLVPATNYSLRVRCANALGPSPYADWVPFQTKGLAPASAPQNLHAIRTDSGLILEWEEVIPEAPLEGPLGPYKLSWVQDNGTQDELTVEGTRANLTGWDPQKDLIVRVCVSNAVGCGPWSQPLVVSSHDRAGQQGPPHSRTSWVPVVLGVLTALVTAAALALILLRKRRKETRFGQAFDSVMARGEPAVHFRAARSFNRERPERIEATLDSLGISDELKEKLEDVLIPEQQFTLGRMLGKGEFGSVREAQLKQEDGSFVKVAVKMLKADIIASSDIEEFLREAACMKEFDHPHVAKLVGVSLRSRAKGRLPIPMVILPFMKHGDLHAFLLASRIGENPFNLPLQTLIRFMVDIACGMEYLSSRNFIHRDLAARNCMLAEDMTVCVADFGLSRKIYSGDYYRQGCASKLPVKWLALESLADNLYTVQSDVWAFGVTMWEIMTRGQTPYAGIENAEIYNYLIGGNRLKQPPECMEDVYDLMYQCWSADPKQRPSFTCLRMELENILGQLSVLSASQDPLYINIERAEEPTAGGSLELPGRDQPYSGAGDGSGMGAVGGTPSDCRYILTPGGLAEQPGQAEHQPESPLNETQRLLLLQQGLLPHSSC
How it was run: as §1

Compound	IC50 (AXL)	IC50 (TYRO3)
COC[C@H](C)Nc1ncc2c([C@H]3CC[C@H](C(C)=O)CC3)cc([C@H]3CC[C@H](O)CC3)n2n1 [Compound 576]	100 to 1000 nM	≤ 100 nM
COCC(C)Nc1ncc2c(-c3ccc4cc[nH]c4c3)cc(C3CCC(O)CC3)n2n1 (stereo not shown) [Compound 538]	100 to 1000 nM	≤ 100 nM
COC[C@H](C)Nc1ncc2c(-c3cncc([S@@](C)(=N)=O)c3)cc([C@H]3CC[C@H](O)CC3)n2n1 [Compound 573]	100 to 1000 nM	≤ 100 nM
COC[C@H](C)Nc1ncc2c([C@H]3CC[C@H](C(=O)N4CC5(COC5)C4)CC3)cc([C@H]3CC[C@H](O)CC3)n2n1 [Compound 578]	100 to 1000 nM	≤ 100 nM
C[C@H](Nc1ncc2c(-c3cnn(C4COC4)c3)cc([C@H]3CC[C@H](O)CC3)n2n1)C(F)(F)F [Compound 510]	100 to 1000 nM	≤ 100 nM
C[C@@H](Nc1ncc2c(-c3cnn(C4COC4)c3)cc([C@H]3CC[C@H](O)CC3)n2n1)C(F)(F)F [Compound 527]	100 to 1000 nM	≤ 100 nM
COC[C@H](C)Nc1ncc2c(-c3cnn(C4COC4)c3)cc(C3CCC(=O)NC3)n2n1 (stereo partly shown) [Compound 526]	1000 to 10000 nM	≤ 100 nM
CC(Nc1ncc2c(-c3cnn(C4COC4)c3)cc(C3CCC(O)CC3)n2n1)c1cccnc1 (racemic) [Compound 536]	100 to 1000 nM	≤ 100 nM
CCOCC(C)Nc1ncc2c(-c3ccc(CN4CCN(C)CC4)cc3)cc(C3CCC(O)CC3)n2n1 (stereo not shown) [Compound 138]	100 to 1000 nM	≤ 100 nM
COC[C@H](C)Nc1ncc2c(-c3cnn(C4COC4)c3)cc([C@@H]3CC[C@H](O)[C@@H](C)C3)n2n1 [Compound 588]	100 to 1000 nM	≤ 100 nM
COCC(C)Nc1ncc2c(-c3ccc(CN4CCCC4)cc3)cc(C3CCC(O)CC3)n2n1 (stereo not shown) [Compound 142]	≤ 100 nM	≤ 100 nM
COC[C@H](C)Nc1ncc2c(-c3ccnc([S@](C)(=N)=O)c3)cc([C@H]3CC[C@H](O)CC3)n2n1 [Compound 575]	100 to 1000 nM	≤ 100 nM
CC(Nc1ncc2c(-c3cnn(C4COC4)c3)cc(C3CCC(O)CC3)n2n1)c1ccccn1 (stereo not shown) [Compound 544]	1000 to 10000 nM	≤ 100 nM
C[C@@H](COC(F)F)Nc1ncc2c(-c3ccc(S(C)(=O)=O)nc3)cc([C@H]3CC[C@H](O)CC3)n2n1 [Compound 513]	≤ 100 nM	≤ 100 nM
COC[C@H](C)Nc1ncc2c(-c3cnn(C(C)(C)C(=O)N4CC[C@@H](O)C4)c3)cc([C@H]3CC[C@H](O)CC3)n2n1 [Compound 555]	≤ 100 nM	≤ 100 nM
COC[C@H](C)Nc1ncc2c([C@H]3CC[C@@H](C(=O)N4CCC(F)(F)CC4)CC3)cc([C@H]3CC[C@H](O)CC3)n2n1 [Compound 577]	≤ 100 nM	≤ 100 nM
COC[C@H](C)Nc1ncc2c(-c3cnn(C4COC4)c3)cc([C@H]3CC[C@@H](O)CC3)n2n1 [Compound 564]	≤ 100 nM	≤ 100 nM

The next lines start with the values.

IC50 (AXL)	IC50 (TYRO3)	Compound
≤ 100 nM	≤ 100 nM	CC[C@]1(O)CC[C@H](c2cc(-c3ccnc(N4CCOCC4)c3)c3cnc(N[C@@H](C)COC)nn32)CC1 [Compound 568]
≤ 100 nM	≤ 100 nM	Cc1nnc(C(C)(C)n2cc(-c3cc([C@H]4CC[C@H](O)CC4)n4nc(N[C@@H](C)COC(F)F)ncc34)cn2)o1 [Compound 517]
≤ 100 nM	≤ 100 nM	COC[C@H](C)Nc1ncc2c(-c3cnn(C(C)(C)C(=O)N4CCOC(C(C)(C)O)C4)c3)cc([C@H]3CC[C@H](O)CC3)n2n1 (stereo partly shown) [Compound 586]
≤ 100 nM	≤ 100 nM	COCC(C)Nc1ncc2c(-c3ccc4[nH]cnc4c3)cc(C3CCC(O)CC3)n2n1 (stereo not shown) [Compound 553]
≤ 100 nM	≤ 100 nM	COC[C@H](C)Nc1ncc2c(C3=CCOCC3)cc([C@H]3CC[C@H](O)CC3)n2n1 [Compound 141]
≤ 100 nM	≤ 100 nM	COC[C@H](C)Nc1ncc2c(-c3ccnc(N4CCOCC4)c3)cc([C@H]3CC[C@](C)(O)CC3)n2n1 [Compound 549]
≤ 100 nM	≤ 100 nM	COC[C@H](C)Nc1ncc2c(-c3ccnc(N4CCOCC4)c3)cc([C@H]3CC[C@@H](O)CC3)n2n1 [Compound 546]
≤ 100 nM	≤ 100 nM	COCC(C)Nc1ncc2c(-c3cccc(-c4nnc(C)o4)c3)cc(C3CCC(O)CC3)n2n1 (stereo not shown) [Compound 551]
≤ 100 nM	≤ 100 nM	COCC(C)Nc1ncc2c(-c3ccc4ocnc4c3)cc(C3CCC(O)CC3)n2n1 (stereo not shown) [Compound 550]
≤ 100 nM	≤ 100 nM	COC[C@H](C)Nc1ncc2c(-c3cnn(C(C)(C)C(=O)N4CC[C@H](O)C4)c3)cc([C@H]3CC[C@H](O)CC3)n2n1 [Compound 554]
≤ 100 nM	≤ 100 nM	COC[C@H](C)Nc1ncc2c(-c3cnn(C4COC4)c3)cc([C@@H]3CC[C@@H](O)[C@H](C)C3)n2n1 [Compound 589]
≤ 100 nM	≤ 100 nM	COC[C@H](C)Nc1ncc2c(-c3cnn(C(C)(C)C(=O)N4CCOCC4)c3)cc([C@H]3CC[C@](C)(O)CC3)n2n1 [Compound 560]
≤ 100 nM	≤ 100 nM	COC[C@H](C)Nc1ncc2c(-c3cnn(C(C)(C)C(=O)N4CCOCC4)c3)cc([C@H]3CC[C@@H](O)CC3)n2n1 [Compound 547]
≤ 100 nM	≤ 100 nM	C[C@@H](CC(F)(F)F)Nc1ncc2c(-c3ccc([S@@](C)(=N)=O)nc3)cc([C@H]3CC[C@H](O)CC3)n2n1 [Compound 541]
≤ 100 nM	≤ 100 nM	COCC(C)Nc1ncc2c(-c3ccnc(N4CCOC(C(C)(C)O)C4)c3)cc(C3CCC(O)CC3)n2n1 (stereo not shown) [Compound 559]
≤ 100 nM	≤ 100 nM	COCC(C)Nc1ncc2c(-c3cccc(N4CCOCC4)c3)cc(C3CCC(O)CC3)n2n1 (stereo not shown) [Compound 562]
≤ 100 nM	≤ 100 nM	COC[C@H](C)Nc1ncc2c(-c3cnn(C(C)(C)c4nnc(C5CC5)o4)c3)cc([C@H]3CC[C@H](O)CC3)n2n1 [Compound 563]
≤ 100 nM	≤ 100 nM	CC(C)(O)C1CN(c2cc(-c3cc([C@H]4CC[C@H](O)CC4)n4nc(NCCOC(F)F)ncc34)ccn2)CCO1 (stereo partly shown) [Compound 557]
≤ 100 nM	≤ 100 nM	COC[C@H](C)Nc1ncc2c(-c3ccnc(N4CCOC(C(C)(C)O)C4)c3)cc([C@H]3CC[C@H](O)CC3)n2n1 (stereo partly shown) [Compound 534]
≤ 100 nM	≤ 100 nM	COC[C@H](C)Nc1ncc2c(-c3ccc(CN4CCN(C)CC4)nc3)cc([C@H]3CC[C@H](O)CC3)n2n1 [Compound 565]
≤ 100 nM	≤ 100 nM	COC[C@H](C)Nc1ncc2c(-c3ccnc(N4CCO[C@H](C(C)(C)O)C4)c3)cc([C@H]3CC[C@H](O)CC3)n2n1 [Compound 558]
≤ 100 nM	≤ 100 nM	COCC(C)Nc1ncc2c(-c3ccc4ncoc4c3)cc(C3CCC(O)CC3)n2n1 (stereo not shown) [Compound 552]
≤ 100 nM	≤ 100 nM	C[C@@H](CC(F)(F)F)Nc1ncc2c(-c3ccnc([S@@](C)(=N)=O)c3)cc([C@H]3CC[C@H](O)CC3)n2n1 [Compound 581]
≤ 100 nM	≤ 100 nM	COC[C@H](C)Nc1ncc2c(-c3cnn(C(C)(C)C(=O)N4CCOC(C(C)(C)O)C4)c3)cc([C@H]3CC[C@H](O)CC3)n2n1 (stereo partly shown) [Compound 556]
